From patent US20230339866A1, “Quinazoline compounds and the use thereof in the treatment of cancer” (TROBIO THERAPEUTICS PTY LTD, priority 2020, published 2023) come the findings set out here.

The IC50 is the concentration at which inhibition is half-maximal. Lower therefore signals inhibition by little substance.

In assay [1] the test system is A549 (NSCLC). In words: Anti-proliferative activity (Cell-Titre luminescence) against A549 non-small cell lung cancer cells. The class given is cell-based. The conditions noted are these: Homo sapiens, 72 h exposure, Cell-Titre luminescent reagent. The method, then: (§1) The ability of compounds of the invention to inhibit the proliferation of cancer cells representative of non-small cell lung cancer and ovarian cancer (Table 2), pancreatic cancer, colorectal cancer and prostate cancer (Table 3) was assessed. Briefly, a predetermined number of cells as calculated from cell growth assays for each of the cell lines employed were seeded into their respective culture medium (using ATCC culture parameters—http://www.atcc.org) and cultured for 24 h at 37° C. and 5% CO2 in 96-well culture plates. Once attached, each cell line was then exposed to various concentrations of each respective analogue (30, 10, 3, 1, 0.3 and 0.1 μM), cultured for a further 72 h and exposed to Cell-Titre luminescent reagent (100 μL/well) for a further 30 min. Luminescence was captured using an EnVision multilabel reader and the data for each analogue concentration compared against no treatment control. Cell viability was normalised to control (vehicle alone) and dose response curves, and half maximal effective concentration (EC50) values were determined using Graph Pad Prism 6 (nonlinear regression sigmoidal dose-response variable slope).

In assay [2] the test system is A2780 (ovarian). Put plainly: Anti-proliferative activity (Cell-Titre luminescence) against A2780 ovarian cancer cells. The class given is cell-based. Particulars: Homo sapiens, 72 h exposure, Cell-Titre luminescent reagent. Here is the method: as §1

Molecules are shown by their SMILES.

Regarding `CCc1ccc(CCNc2nc(NCCCN(C)C)c3ccccc3n2)cc1` [Compound 76, N^4-(3-(dimethylamino)propyl)-N^2-(4-ethylphenethyl)quinazoline-2,4-diamine], the IC50 in assay [1] (A549, 72 h) was 8.88 µM; in assay [2] (A2780, 72 h), 7.11 µM.

For `CCc1ccc(Nc2nc(NCCN(C)C)c3ccccc3n2)cc1` [Compound 62, N^4-(2-(dimethylamino)ethyl)-N^2-(4-ethylphenyl)quinazoline-2,4-diamine], the IC50 in assay [1] (A549, 72 h) worked out at 7.5 µM; in assay [2] (A2780, 72 h) it was 13.1 µM.

For the molecule `CN(C)CCCNc1nc(-n2cccc2)nc2ccccc12` [Compound 103, N^1-(2-(1H-pyrrol-1-yl)quinazolin-4-yl)-N^3,N^3-dimethylpropane-1,3-diamine], the IC50 worked out at 24.1 µM in assay [1] (A549, 72 h) and 16.5 µM in assay [2] (A2780, 72 h).

In the case of `COc1cccc(CNc2nc(NCCO)c3ccccc3n2)c1` [Compound 33, 2-((2-((3-methoxybenzyl)amino)quinazolin-4-yl)amino)ethan-1-ol], the IC50 was 21 µM in assay [1] (A549, 72 h) and 8.95 µM in assay [2] (A2780, 72 h).

Regarding `OCCNc1nc(-c2ccc[nH]2)nc2ccccc12` [Compound 20, 2-((2-(1H-pyrrol-2-yl)quinazolin-4-yl)amino)ethan-1-ol], the IC50 is over 30 µM in assay [1] (A549, 72 h) and over 30 µM in assay [2] (A2780, 72 h).

`OCCNc1nc(Nc2ccc(C(F)(F)F)cc2)nc2ccccc12` [Compound 28, 2-((2-((4-(trifluoromethyl)phenyl)amino)quinazolin-4-yl)amino)ethan-1-ol]: the 50% inhibitory concentration (IC50) in assay [1] (A549, 72 h) is over 30 µM; in assay [2] (A2780, 72 h), over 30 µM.

`Cc1ccccc1CCNc1nc(NCCN2CCN(C)CC2)c2ccccc2n1` [Compound 122, N^2-(2-methylphenethyl)-N^4-(2-(4-methylpiperazin-1-yl)ethyl)quinazoline-2,4-diamine]: the IC50 in assay [1] (A549, 72 h) is 3.17 µM; in assay [2] (A2780, 72 h), 2.68 µM.

Regarding `OCCNc1nc(Nc2ccccc2)nc2ccccc12` [Compound 26, 2-((2-(phenylamino)quinazolin-4-yl)amino)ethan-1-ol], the IC50 turned out to be 22 µM in assay [1] (A549, 72 h) and 16.9 µM in assay [2] (A2780, 72 h).

`OCCNc1nc(NCc2cccc(C(F)(F)F)c2)nc2ccccc12` [Compound 2, 2-((2-((3-(trifluoromethyl)benzyl)amino)quinazolin-4-yl)amino)ethan-1-ol]: the results for the IC50 in assay [1] (A549) and in assay [2] (A2780) were 11.1 µM and 10.7 µM, respectively.

With `COCCCNc1nc(NCCc2cccc(C(F)(F)F)c2)nc2ccccc12` [Compound 117, N^4-(3-methoxypropyl)-N^2-(3-(trifluoromethyl)phenethyl)quinazoline-2,4-diamine], the IC50 in assay [1] (A549, 72 h) was 3.05 µM; in assay [2] (A2780, 72 h), 1.62 µM.

Take `COc1cccc(CCNc2nc(NCCO)c3ccccc3n2)c1` [Compound 38, 2-((2-((3-methoxyphenethyl)amino)quinazolin-4-yl)amino)ethan-1-ol]: the IC50 in assay [1] (A549, 72 h) stood at 26.8 µM; in assay [2] (A2780, 72 h) it was 18.8 µM.

In the case of `CC(C)C(CNc1nc(-c2ccco2)nc2ccccc12)N1CCN(C)CC1` (centres unmarked) [Compound 6, 2-(furan-2-yl)-N-(3-methyl-2-(4-methylpiperazin-1-yl)butyl)quinazolin-4-amine], the IC50 is over 30 µM in assay [1] (A549, 72 h) and over 30 µM in assay [2] (A2780, 72 h).

Take `FC(F)(F)c1cccc(Nc2nc(NCCc3c[nH]cn3)c3ccccc3n2)c1` [Compound 79, N^4-(2-(1H-imidazol-4-yl)ethyl)-N^2-(3-(trifluoromethyl)phenyl)quinazoline-2,4-diamine]: the IC50 was over 30 µM in assay [1] (A549, 72 h) and 18.9 µM in assay [2] (A2780, 72 h).

Take `OCCNc1nc(NCCc2ccccc2)nc2ccccc12` [Compound 35, 2-((2-(phenethylamino)quinazolin-4-yl)amino)ethan-1-ol]: the IC50 was over 30 µM in assay [1] (A549, 72 h) and 7.47 µM in assay [2] (A2780, 72 h).

For `c1ccc2c(NCCc3c[nH]cn3)nc(-c3ccsc3)nc2c1` [Compound 105, N-(2-(1H-imidazol-4-yl)ethyl)-2-(thiophen-3-yl)quinazolin-4-amine], the IC50 in assay [1] (A549, 72 h) was 24.1 µM; in assay [2] (A2780, 72 h) it was 9.05 µM.

For `CN1CCN(CCNc2nc(NCCc3ccncc3)nc3ccccc23)CC1` [Compound 146, N^4-(2-(4-methylpiperazin-1-yl)ethyl)-N^2-(2-(pyridin-4-yl)ethyl)quinazoline-2,4-diamine], the IC50 in assay [1] (A549, 72 h) worked out at 15.7 µM; in assay [2] (A2780, 72 h), 14.1 µM.

With `COc1cc(CCNc2nc(NCCN3CCN(C)CC3)c3ccccc3n2)cc(OC)c1OC` [Compound 142, N^4-(2-(4-methylpiperazin-1-yl)ethyl)-N^2-(3,4,5-trimethoxyphenethyl)quinazoline-2,4-diamine], the IC50 is over 30 µM in assay [1] (A549, 72 h) and over 30 µM in assay [2] (A2780, 72 h).

`OCCNc1nc(NCCc2cccc(F)c2)nc2ccccc12` [Compound 90, 2-((2-((3-fluorophenethyl)amino)quinazolin-4-yl)amino)ethan-1-ol]: the IC50 was 3.87 µM in assay [1] (A549, 72 h) and 5.19 µM in assay [2] (A2780, 72 h).

Consider `OCCNc1nc(-c2ccsc2)nc2ccccc12` [Compound 19, 2-((2-(thiophen-3-yl)quinazolin-4-yl)amino)ethan-1-ol], for which the IC50 was over 30 µM in assay [1] (A549, 72 h) and over 30 µM in assay [2] (A2780, 72 h).

As to `COc1ccc(CNc2nc(NCCO)c3ccccc3n2)cc1` [Compound 34, 2-((2-((4-methoxybenzyl)amino)quinazolin-4-yl)amino)ethan-1-ol], the IC50 in assay [1] (A549, 72 h) came to 14.1 µM; in assay [2] (A2780, 72 h), 12.8 µM.

As for `CN1CCN(CCNc2nc(NCCc3ccc(Cl)cc3)nc3ccccc23)CC1` [Compound 130, N^2-(4-chlorophenethyl)-N^4-(2-(4-methylpiperazin-1-yl)ethyl)quinazoline-2,4-diamine], the IC50 turned out to be 10.9 µM in assay [1] (A549, 72 h) and 2.88 µM in assay [2] (A2780, 72 h).

For `CN1CCN(CCNc2nc(NCc3cccc(C(F)(F)F)c3)nc3ccccc23)CC1` [Compound 46, N^4-(2-(4-methylpiperazin-1-yl)ethyl)-N^2-(3-(trifluoromethyl)benzyl)quinazoline-2,4-diamine], the IC50 worked out at 3.04 µM in assay [1] (A549, 72 h) and 2.34 µM in assay [2] (A2780, 72 h).

On to `OCCNc1nc(NCCc2cccc(C(F)(F)F)c2)nc2ccccc12` [Compound 36, 2-((2-((3-(trifluoromethyl)phenethyl)amino)quinazolin-4-yl)amino)ethan-1-ol], for which the IC50 came out at 2.67 µM in assay [1] (A549, 72 h) and 2.32 µM in assay [2] (A2780, 72 h).

As for `COc1ccc(Nc2nc(NCCN3CCN(C)CC3)c3ccccc3n2)cc1` [Compound 44, N^2-(4-methoxyphenyl)-N^4-(2-(4-methylpiperazin-1-yl)ethyl)quinazoline-2,4-diamine], the IC50 in assay [1] (A549, 72 h) was 5.8 µM; in assay [2] (A2780, 72 h), 2.49 µM.

For `CN(C)CCNc1nc(NCCc2cccc(F)c2)nc2ccccc12` [Compound 67, N^4-(2-(dimethylamino)ethyl)-N^2-(3-fluorophenethyl)quinazoline-2,4-diamine], the IC50 in assay [1] (A549, 72 h) came to 5.9 µM; in assay [2] (A2780, 72 h), 7.59 µM.

On to `CN1CCN(CCNc2nc(OCCc3cccc(C(F)(F)F)c3)nc3ccccc23)CC1` [Compound 150, N-(2-(4-methylpiperazin-1-yl)ethyl)-2-(3-(trifluoromethyl)phenethoxy)quinazolin-4-amine], for which the IC50 came out at 16.5 µM in assay [1] (A549, 72 h) and 12.2 µM in assay [2] (A2780, 72 h).

Regarding `OCCNc1nc(Nc2cccc(C(F)(F)F)c2)nc2ccccc12` [Compound 27, 2-((2-((3-(trifluoromethyl)phenyl)amino)quinazolin-4-yl)amino)ethan-1-ol], the IC50 in assay [1] (A549, 72 h) came to 2.84 µM; in assay [2] (A2780, 72 h), 6.74 µM.

Regarding `CN(C)CCCNc1nc(-c2ccsc2)nc2ccccc12` [Compound 100, N^1,N^1-dimethyl-N^3-(2-(thiophen-3-yl)quinazolin-4-yl)propane-1,3-diamine], the IC50 in assay [1] (A549, 72 h) was determined as 19.4 µM; in assay [2] (A2780, 72 h), 11.8 µM.

Take `CN1CCN(CCNc2nc(NCCc3ccccn3)nc3ccccc23)CC1` [Compound 144, N^4-(2-(4-methylpiperazin-1-yl)ethyl)-N^2-(2-(pyridin-2-yl)ethyl)quinazoline-2,4-diamine]: the IC50 in assay [1] (A549, 72 h) came out at 27.8 µM; in assay [2] (A2780, 72 h) it was 9.37 µM.

On to `CN1CCN(CCNc2nc(NCCc3ccccc3Cl)nc3ccccc23)CC1` [Compound 123, N^2-(2-chlorophenethyl)-N^4-(2-(4-methylpiperazin-1-yl)ethyl)quinazoline-2,4-diamine], for which the 50% inhibitory concentration (IC50) in assay [1] (A549, 72 h) was 3.36 µM; in assay [2] (A2780, 72 h) it was 2.38 µM.

Turning to `CN1CCN(CCNc2nc(NCCc3cccs3)nc3ccccc23)CC1` [Compound 147, N^4-(2-(4-methylpiperazin-1-yl)ethyl)-N^2-(2-(thiophen-2-yl)ethyl)quinazoline-2,4-diamine], the IC50 in assay [1] (A549, 72 h) was 3.18 µM; in assay [2] (A2780, 72 h), 2.81 µM.

On to `CN1CCN(CCNc2nc(NCCc3ccccc3)nc3ccccc23)CC1` [Compound 50, N^4-(2-(4-methylpiperazin-1-yl)ethyl)-N^2-phenethylquinazoline-2,4-diamine], for which the IC50 in assay [1] (A549, 72 h) was 5.3 µM; in assay [2] (A2780, 72 h) it was 7.68 µM.

With `CN1CCN(CCNc2nc(NCCc3ccco3)nc3ccccc23)CC1` [Compound 148, N^2-(2-(furan-2-yl)ethyl)-N^4-(2-(4-methylpiperazin-1-yl)ethyl)quinazoline-2,4-diamine], the IC50 in assay [1] (A549, 72 h) is over 30 µM; in assay [2] (A2780, 72 h) it was 7.77 µM.

With `OCCNc1nc(-n2cccc2)nc2ccccc12` [Compound 25, 2-((2-(1H-pyrrol-1-yl)quinazolin-4-yl)amino)ethan-1-ol], the IC50 in assay [1] (A549, 72 h) is over 30 µM; in assay [2] (A2780, 72 h), over 30 µM.
